From patent US20250170130A1, “MODULATORS OF MYC FAMILY PROTO-ONCOGENE PROTEIN” (Nalo Therapeutics, priority 2022, published 2025)
Like-named read-outs stand apart in the source and are kept apart here.

What was measured:
[1] = molecular target: T1, MycN (Homo sapiens, UniProt P04198); assay: Degradation of MycN protein in SK-N-BE(2) cells, JESS/Western blot of lysates; assay type: cell-based; settings: SKNBE2, 24 h; for Dmax at 0.5 µM: read-out: % Degradation of MycN (SKNBE2) 24 h, 0.5 μM; for Dmax at 1 µM: read-out: % Degradation of MycN (SKNBE2) 24 h, 1 μM; for Dmax at 3 µM: read-out: % Degradation of MycN (SKNBE2) 24 h, 3 μM; for Dmax at 6 µM: read-out: % Degradation of MycN (SKNBE2) 24 h, 6 μM
T1 construct: endogenous in cells; host or cells: SK-N-BE(2)
T1 sequence (P04198 1-464): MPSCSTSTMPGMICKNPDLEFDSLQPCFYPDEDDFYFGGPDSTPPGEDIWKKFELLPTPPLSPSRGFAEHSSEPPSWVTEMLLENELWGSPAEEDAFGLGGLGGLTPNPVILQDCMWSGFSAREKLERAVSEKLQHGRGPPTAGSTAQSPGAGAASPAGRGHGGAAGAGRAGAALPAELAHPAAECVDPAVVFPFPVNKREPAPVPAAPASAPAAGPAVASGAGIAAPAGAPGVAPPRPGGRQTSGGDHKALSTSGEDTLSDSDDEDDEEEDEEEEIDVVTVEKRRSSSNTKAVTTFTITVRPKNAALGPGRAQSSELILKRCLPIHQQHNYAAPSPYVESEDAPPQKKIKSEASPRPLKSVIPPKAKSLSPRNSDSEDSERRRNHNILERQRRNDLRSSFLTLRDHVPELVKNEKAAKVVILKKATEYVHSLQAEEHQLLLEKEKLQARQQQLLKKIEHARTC
Method in brief: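 SK-N-BE(2) adherent cells (5E5 per well of a 6 well dish) were grown 24 hrs, then exposed to compounds diluted 1 in 20 in media, with DMSO controls, for 24 hrs. Cells were scraped, pelleted, PBS washed and lysed in RIPA buffer cocktail; after BCA protein quantitation, n-myc was detected by chemiluminescence on JESS/Western blot with tubulin and GAPDH loading controls read in the near infra red channel.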

[2] = molecular target: T2, MycC (Homo sapiens, UniProt P01106); assay: Degradation of MycC protein in L363 cells, JESS/Western blot of lysates; assay type: cell-based; settings: L-363, 24 h; for Dmax at 0.5 µM: read-out: % Degradation of MycC (L-363) 24 h, 0.5 μM; for Dmax at 1 µM: read-out: % Degradation of MycC (L-363) 24 h, 1 μM; for Dmax at 3 µM: read-out: % Degradation of MycC (L-363) 24 h, 3 μM; for Dmax at 6 µM: read-out: % Degradation of MycC (L-363) 24 h, 6 μM
T2 construct: endogenous in cells; host or cells: L363
Method in brief: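 L363 suspension cells were seeded at 1E6 cells per well and exposed to compound (stock 10 mM in DMSO) for 24 hrs. Cells were collected, spun down, rinsed with PBS, lysed in RIPA buffer cocktail on ice, clarified and kept at −80 degrees. Lysate protein was quantified by BCA, and c-myc was measured on JESS by chemiluminescence with tubulin and GAPDH loading controls in the NIR channel.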

T2 sequence (P01106 whole entry): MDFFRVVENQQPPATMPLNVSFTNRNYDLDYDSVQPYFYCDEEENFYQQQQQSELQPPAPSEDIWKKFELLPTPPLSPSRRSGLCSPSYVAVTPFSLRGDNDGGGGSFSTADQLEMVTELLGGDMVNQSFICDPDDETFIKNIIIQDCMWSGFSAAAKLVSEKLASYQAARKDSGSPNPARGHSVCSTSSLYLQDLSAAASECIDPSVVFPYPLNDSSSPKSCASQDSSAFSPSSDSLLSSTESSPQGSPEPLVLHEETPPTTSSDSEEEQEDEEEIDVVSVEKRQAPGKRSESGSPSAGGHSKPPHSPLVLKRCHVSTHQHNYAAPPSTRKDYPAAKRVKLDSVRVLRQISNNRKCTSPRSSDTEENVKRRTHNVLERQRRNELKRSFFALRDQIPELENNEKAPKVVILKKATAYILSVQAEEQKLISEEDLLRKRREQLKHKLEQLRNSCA

Row | Structure (SMILES) | Dmax at 0.5 µM ([1]; SKNBE2 cells, 24 h, 0.5 μM) | Dmax at 1 µM ([1]; SKNBE2 cells, 24 h, 1 μM) | Dmax at 3 µM ([1]; SKNBE2 cells, 24 h, 3 μM) | Dmax at 6 µM ([1]; SKNBE2 cells, 24 h, 6 μM) | Dmax at 0.5 µM ([2]; L-363 cells, 24 h) | Dmax at 1 µM ([2]; L-363 cells, 24 h, 1 μM) | Dmax at 3 µM ([2]; L-363 cells, 24 h, 3 μM) | Dmax at 6 µM ([2]; L-363 cells, 24 h, 6 μM) | Dmax at 0.5 µM [1] | Dmax at 1 µM [1] | Dmax at 3 µM [1] | Dmax at 6 µM [1] | Dmax at 1 µM [2] | Dmax at 3 µM [2] | Dmax at 6 µM [2]
1 | CN1CC(C2CCN(c3nccc(Nc4cc(C5CCCC5)[nH]n4)n3)C2)C1 (stereo not shown) [Compound 27, N-(5-cyclopentyl-1H-pyrazol-3-yl)-2-[3-(1-methylazetidin-3-yl)pyrrolidin-1-yl]pyrimidin-4-amine] | 20 to 49% | 20 to 49% | 50 to 79% | 80 to 100% | < 20% | 20 to 49% | < 20% | 20 to 49% |  |  |  |  |  |  | 
2 | c1cc(Nc2cc(C3CCCC3)[nH]n2)nc(N2CCC(C3CNC3)C2)n1 (stereo not shown) [Compound 28, 2-[3-(azetidin-3-yl)pyrrolidin-1-yl]-N-(5-cyclopentyl-1H-pyrazol-3-yl)pyrimidin-4-amine] |  | 80 to 100% | 80 to 100% | 80 to 100% | < 20% | < 20% |  | 50 to 79% |  |  |  |  |  |  | 
3 | NC[C@H]1CCCN(c2nccc(Nc3cc(C4CC4)[nH]n3)n2)C1 [Compound 29, 2-[(3R)-3-(Aminomethyl)-1-piperidyl]-N-(5-cyclopropyl-1H-pyrazol-3-yl)pyrimidin-4-amine] | 80 to 100% | 80 to 100% | 80 to 100% | 80 to 100% | 20 to 49% | 50 to 79% | 80 to 100% | 80 to 100% |  |  |  |  |  |  | 
4 | NCC12CC(C1)N(c1nccc(Nc3cc(C4CC4)[nH]n3)n1)C2 [Compound 30, 2-[4-(aminomethyl)-2-azabicyclo[2.1.1]hexan-2-yl]-N-(5-cyclopropyl-1H-pyrazol-3-yl)pyrimidin-4-amine] |  |  |  |  |  |  |  |  | < 20% | 50 to 79% | 80 to 100% | 80 to 100% | 20 to 49% | 80 to 100% | 80 to 100%
5 | CNCC12CC(C1)N(c1nccc(Nc3cc(C4CCCC4)[nH]n3)n1)C2 [Compound 31, N-(5-cyclopentyl-1H-pyrazol-3-yl)-2-[4-(methylaminomethyl)-2-azabicyclo[2.1.1]hexan-2-yl]pyrimidin-4-amine] | 80 to 100% | 80 to 100% | 80 to 100% | 80 to 100% |  |  | 80 to 100% | 80 to 100% |  |  |  |  |  |  | 
6 | CNC[C@H]1CCN(c2nccc(Nc3cc(C4CCCC4)[nH]n3)n2)C1 [Compound 35, N-(5-cyclopentyl-1H-pyrazol-3-yl)-2-[(3R)-3-(methylaminomethyl)pyrrolidin-1-yl]pyrimidin-4-amine] | 20 to 49% | 50 to 79% | 80 to 100% | 80 to 100% |  | < 20% | 50 to 79% | 80 to 100% |  |  |  |  |  |  | 
7 | CNC[C@@H]1CCN(c2nccc(Nc3cc(C4CCCC4)[nH]n3)n2)C1 [Compound 36, N-(5-cyclopentyl-1H-pyrazol-3-yl)-2-[(3S)-3-(methylaminomethyl)pyrrolidin-1-yl]pyrimidin-4-amine] | 20 to 49% | < 20% | 80 to 100% | 80 to 100% | < 20% | 20 to 49% | < 20% | 80 to 100% |  |  |  |  |  |  | 
8 | CNC[C@@H]1CCCN(c2nccc(Nc3cc(C4CC4)[nH]n3)n2)C1 [Compound 37, N-(5-cyclopropyl-1H-pyrazol-3-yl)-2-[(3S)-3-(methylaminomethyl)-1-piperidyl]pyrimidin-4-amine] | 20 to 49% | 20 to 49% | 50 to 79% | 80 to 100% |  | < 20% | < 20% |  |  |  |  |  |  |  | 
9 | CN1CC(C2CCN(c3nccc(Nc4cc(C5CC5)[nH]n4)n3)C2)C1 (stereo not shown) [Compound 38, N-(5-Cyclopropyl-1H-pyrazol-3-yl)-2-[3-(1-methylazetidin-3-yl)pyrrolidin-1-yl]pyrimidin-4-amine] | 20 to 49% | 20 to 49% | 20 to 49% | 50 to 79% | < 20% | < 20% | < 20% | < 20% |  |  |  |  |  |  | 
10 | CN1C[C@H]2CN(c3nccc(Nc4cc(C5CC5)[nH]n4)n3)C[C@H]21 [Compound 40, N-(5-Cyclopropyl-1H-pyrazol-3-yl)-2-[(1S,5S)-6-methyl-3,6-diazabicyclo[3.2.0]heptan-3-yl]pyrimidin-4-amine] |  |  | < 20% | < 20% | < 20% | < 20% | < 20% |  |  |  |  |  |  |  | 
11 | c1cc(Nc2cc(C3CC3)[nH]n2)nc(N2CCC3(CCNC3)C2)n1 (stereo not shown) [Compound 42, N-(5-Cyclopropyl-1H-pyrazol-3-yl)-2-(2,7-diazaspiro[4.4]nonan-2-yl)pyrimidin-4-amine] | 20 to 49% | 50 to 79% | 50 to 79% | 80 to 100% | < 20% | < 20% |  | 80 to 100% |  |  |  |  |  |  | 
12 | CN1CC2(CCCN(c3nccc(Nc4cc(C5CC5)[nH]n4)n3)C2)C1 [Compound 43] | 20 to 49% | 20 to 49% | 20 to 49% | 50 to 79% | 20 to 49% | < 20% | 20 to 49% | < 20% |  |  |  |  |  |  | 
13 | CN1CC2(CCN(c3nccc(Nc4cc(C5CC5)[nH]n4)n3)CC2)C1 [Compound 44, N-(5-Cyclopropyl-1H-pyrazol-3-yl)-2-(2-methyl-2,7-diazaspiro[3.5]nonan-7-yl)pyrimidin-4-amine] |  | < 20% | 20 to 49% | 80 to 100% |  |  | < 20% | 80 to 100% |  |  |  |  |  |  | 
14 | CNCC12CCC(C1)N(c1nccc(Nc3cc(C4CC4)[nH]n3)n1)C2 (stereo not shown) [Compound 45, N-(5-Cyclopropyl-1H-pyrazol-3-yl)-2-[4-(methylaminomethyl)-2-azabicyclo[2.2.1]heptan-2-yl]pyrimidin-4-amine] | 80 to 100% | 80 to 100% | 80 to 100% | 80 to 100% | 80 to 100% | 80 to 100% | 80 to 100% | 80 to 100% |  |  |  |  |  |  | 
